Data reported in PMC6113223 (2018).

Experiments:
[1] = tested on: Lee aptamer (56-mer) (DNA, aptamer) AGCAGCACAGAGGTCATGGGGGGTGTGACTTTGGTGTGCCTATGCGTGCTACGGAA; assay: AuNP aggregation colorimetry (A650/A525), centrifugation and resuspension; conditions: 100 mM NaCl (Na+), added after target incubation, water, 5% ethanol in target solution, room temperature; for binding: tested at 600 nM
[2] = tested on: Random ssDNA (70-mer) (DNA, single strand) AGGCCTAAGGGCATAATTAGCTCGAGCTCGAAAGGGGTTATATGATGATTTGAATTCATGGGGCCCGACT; assay: as above; conditions: 100 mM NaCl (Na+), added after target incubation; water, 5% ethanol in target solution, room temperature; control; VTD3 series in Figures 2C and 3B

Structure (SMILES) | binding [1] | other results
C=C1CC[C@H](O)C/C1=C/C=C1\CCC[C@]2(C)[C@@H]([C@H](C)/C=C/[C@H](C)C(C)C)CC[C@@H]12 | – | binding ([1]; concentration series in Figure 2C): no
C=C1CC[C@H](O)C/C1=C/C=C1\CCC[C@]2(C)[C@@H]([C@H](C)CCCC(C)C)CC[C@@H]12 | – | Kd, app ([1]; 10 min, apparent, Langmuir fit, aptamer adsorbed on AuNP): 220 nM; binding [2]: no
CC(=O)[C@H]1CC[C@H]2[C@@H]3CCC4=CC(=O)CC[C@]4(C)[C@H]3CC[C@]12C | no | –
C[C@]12C=CC(=O)C=C1CC[C@@H]1[C@@H]2C(=O)C[C@@]2(C)[C@H]1CC[C@]2(O)C(=O)CO | no | –
C[C@]12CC[C@@H]3c4ccc(O)cc4CC[C@H]3[C@@H]1CC[C@@H]2O | no | –
